# Assays:
# human bronchial rings = assay: Myograph contractile response of human bronchial rings in myriocin-containing bath; settings: 90 min in myriocin-containing bath solution (10 μM), then methacholine; FIG. 3E
# Description: Human bronchial tissues were obtained from patients (n=15) undergoing surgery for lung cancer. The study was approved by the IRB at Weill Cornell Medical College. Within 30 min following resection, segments of bronchi with an inner diameter of 3-5 mm were taken from areas as far removed from the malignancy as possible. Bronchi were placed in oxygenated KH and following removal of adhering fat and connective tissues four to eight rings of the same bronchus were prepared. Each set of bronchial rings was suspended under an initial tension of 300-350 mg in KH solution containing 0.01% BSA, bubbled with 95% O2 and 5% CO2 at 37° C. and then washed every 15 min for 1 h. K^+ solution (80 mM) was then used to achieve maximum contraction and myriocin (10 μM) or solvent was added 30 min after washout of the K^+ solution. Methacholine (0.01-1 μM) was added after 90 minutes. Experiments were conducted on parallel groups of four rings at a time. Contractile responses were measured and analyzed as for the murine rings.
# lung inflammation = assay: Assessment of inflammation (BAL cells, lung histology, cytokine mRNA) after myriocin; assay type: in vivo, mice
# Description: BAL was collected by intratracheal instillations of PBS (2×0.5 ml). Cell differentials were determined by Giemsa stain on cytospin preparations. Cell viability was determined by trypan blue exclusion. Expression of TNF-α, IL-6 and IL-1β in the lung was quantified by TaqMan RealTime RT-PCR. RNA was extracted using TRIzol (Invitrogen). […] RNA levels were quantified using the ΔΔCt method and normalized to expression of murine ribosomal 18s (4310893E, Applied Biosystems). For lung histology, lungs were inflated with 4% paraformaldehyde at 25 cm H2O and 5 μm paraffin sections were stained with hematoxylin and eosin (H&E).
# isolated bronchial rings = assay: MgSO4-induced relaxation of methacholine-stimulated bronchial rings from myriocin-treated mice; settings: rings from mice given intranasal myriocin (20 μg), methacholine then MgSO4 (15 mM); FIG. 5C
# Description: The effect of Mg^2+ supplementation on methacholine-induced contraction of bronchial rings was analyzed by adding MgSO4 (15 mM) to the myograph bath solution following stimulation with methacholine (10 μM).
# BALB/c mice = assay: Lung mechanics and airway reactivity to inhaled methacholine after intranasal myriocin; assay type: in vivo; settings: 3 h after intranasal myriocin (2 or 20 μg)
# Description: Animal studies described herein were conducted under protocols approved by the Institutional Animal Care and Use Committee of Weill Cornell Medical College. Female BALB/c mice, obtained from Taconic Farms (Tarrytown, N.Y.). Animals were housed under specific pathogen-free conditions and used at 6 to 8 weeks of age. Myriocin (Enzo Life Sciences, Plymouth Meeting, Pa.) was freshly prepared from a 10 mM stock solution to a 1 mM or 100 μM solution in 0.9% saline and 0.05% fatty acid free bovine serum albumin and 50 μl were administered intranasally. Control animals received the vehicle solution (1% DMSO in 0.9% saline, 0.5% BSA) or were naïve. […]
# Mice were anaesthetized with pentobarbital (100 mg/kg; American Pharmaceutical Partners, Los Angeles, Calif.), tracheostomized and mechanically ventilated at a rate of 150 breaths/min, a tidal volume of 10 ml/kg and positive end-expiratory pressure of 2-3 cm H2O using a computer-controlled animal ventilator (Sireq, Montreal, Canada). […] Rn and G were also assessed following increasing doses of methacholine (3.125, 12.5 and 50 mg/ml).
# Experiments were then performed to assess if administration of myriocin directly to the respiratory tract affects pulmonary function. […] Airway resistance (Rn) in response to increasing doses of inhaled methacholine was determined 3 h after myriocin administration. […]
# TRPM7 = assay: Lung magnesium homeostasis (TRPM6/TRPM7 mRNA, total lung magnesium) after myriocin; assay type: in vivo, mice
# Text: It is proportional to the magnesium concentration.
smiles,measurement,setting,value
CCCCCCC(=O)CCCCCC/C=C/C[C@@H](O)[C@H](O)[C@@](N)(CO)C(=O)O [myriocin],contractile force of human bronchial rings,human bronchial rings,increased contractile force
same,expression of IL-6 in the lungs,"lung inflammation; myriocin (20 μg) vs controls, FIG. 4H",No increases
same,expression of IL-1β in the lungs,"lung inflammation; myriocin (20 μg) vs controls, FIG. 4I",No increases
same,TNF-α expression in the lungs,"lung inflammation; myriocin (20 μg) vs controls, FIG. 4J",less
same,number of neutrophils in the BAL,"lung inflammation; myriocin-treated (20 μg) animals, FIG. 4B",small increase
same,inflammatory changes in lung sections (H&E),lung inflammation; myriocin-treated (20 μg) mice,No inflammatory changes
same,magnesium-induced relaxation of bronchial rings,isolated bronchial rings,impaired
same,airway reactivity (airway resistance Rn in response to inhaled methacholine),BALB/c mice; FIG. 3A,increased
same,"Baseline lung mechanical properties, such as static compliance",BALB/c mice; FIG. 3B,not altered
same,expression of TRPM6,TRPM7; data not shown,not altered
same,expression of TRPM7 in the lungs,"TRPM7; mice that had received myriocin, FIG. 5A",increased
same,lung magnesium levels,"TRPM7; myriocin-treated (20 μg) mice, FIG. 5B",reduced

# Source: US10159678B2, “Methods to decrease susceptibility to asthmatic bronchoconstriction” (Cornell University, priority 2012, dated 2018)
